Measurements taken from patent US12642812B2, “Nicotinamide mononucleotide derivatives and use thereof in the treatment and prevention of an antineoplastic-induced toxicity” (NUVAMID SA, priority 2020, dated 2026).

Tests used:
Format in all cases: in vivo, mice
[1] = tested on: doxorubicin-induced cardiotoxicity; assay: Survival rate in doxorubicin-induced cardiotoxicity model; details: for survival rate (% of survival): DOX 20 mg/kg i.p. mice, compound 180 mg/kg i.p. once daily from 5 days before DOX to D5, 5 days after DOX
Description: The aim of the present study was to evaluate, the effects of i.p. administration of compounds 001, 010 and 011 at 180 mg/kg in the progression of a cardiotoxicity induced by doxorubicin.
(§1) Cardiotoxicity was induced by a single intraperitoneal injection of doxorubicin (DOX) at 20 mg/kg. Doxorubicin was prepared at 2 mg/mL and volume of administration was 10 mL/Kg.
Mortality rate was followed-up all along the experimental phase.
(§2) • Group 1: Vehicle (i.p.) • Group 2: Doxorubicin (20 mg/kg) • Group 3: Doxorubicin (20 mg/kg)+compound 001 180 mg/kg • Group 4: Doxorubicin (20 mg/kg)+compound 010 180 mg/kg • Group 5: Doxorubicin (20 mg/kg)+compound 011 180 mg/kg Group Repartition:
At D0, mice received DOX (20 mg/kg) by intraperitoneal route.
(§3) The treatment with compounds 001, 010 and 011 was initiated from 5 days before DOX injection once per day from […] to D0.
(§4) Mice were i.p treated with compounds 001, 010 and 01130 min before DOX injection.
(§5) Mice were i.p treated with compounds 001,010 and 011 for the duration of the experiment (D0 to D5) once per day. Last injection occurred 24 hours before sacrifice.
The survival rate was recorded every day until the end of the experiment (D5).

[2] = tested on: doxorubicin-induced cardiotoxicity; assay: Plasmatic LDH biomarker in doxorubicin-induced cardiotoxicity model; details: plasma, 5 days after DOX
Description: as §1, §2, §3, §4, §5
Retro-orbital blood collection was performed at the inclusion and at 1 and 5 days after the induction with DOX to assess biomarkers (especially LDH).
DOX mice were treated with compounds 001,010 and 011 (180 mg/kg) or vehicle. Plasmatic LDH (lactate dehydrogenase) was measured 5 days after doxorubicin injection.

[3] = tested on: doxorubicin-induced cardiotoxicity; assay: Body weight in doxorubicin-induced cardiotoxicity model; details: for body weight loss observed after doxorubicin administration (effect of treatment): DOX 20 mg/kg i.p. mice, compound 180 mg/kg i.p. daily, D5 vs before injection, vs DOX vehicle
Description: The treatment with compounds 001, 010 and 011 was initiated from 5 days before DOX injection once per day from D5 to D0.
The bodyweight was assessed at inclusion and at D5.

[4] = tested on: doxorubicin-induced cardiotoxicity; assay: Assessment of cardiac function by echocardiography in doxorubicin-induced cardiotoxicity model; details: 5 days after DOX; for heart rate (effect of treatment, in words): vs DOX vehicle; for end-systolic LV volume (effect of treatment): vs doxorubicin vehicle group; for anterior and posterior wall thickness in systole (effect of treatment): compound 180 mg/kg
Description: Cardiotoxicity was induced by a single intraperitoneal injection of doxorubicin (DOX) at 20 mg/kg. Doxorubicin was prepared at 2 mg/mL and volume of administration was 10 mL/Kg. • Group 1: Vehicle (i.p.) • Group 2: […] Doxorubicin (20 mg/kg)+compound 001 180 mg/kg • Group 4: Doxorubicin (20 mg/kg)+compound 010 180 mg/kg • Group 5: Doxorubicin (20 mg/kg)+compound 011 180 mg/kg Group Repartition: […] Mice were i.p treated with compounds 001, 010 and 01130 min before DOX injection. Mice were i.p treated with compounds 001,010 and 011 for the duration of the experiment (D0 to D5) once per day. Last injection occurred 24 hours before sacrifice. Echocardiography (ECG) was performed 5 days after doxorubicin injection in anesthetized (isoflurane 1.5-2%) animals with non-invasive two-dimensional echocardiography (VF16-5 probe, Siemens, Acuson NX3 Elite). After removing hairs on the chest, numeric images of the heart will be obtained in both parasternal long-axis and short axis views. The following cardiac function were assessed during ECG: • Left ventricle (LV) end-systolic and end-diastolic inner diameter, • LV end-systolic and end-diastolic volume, • Fractional shortening; • Ejection fraction; • Heart Rate; and • Anterior and posterior wall thickness in Diastole and in systole.

[5] = tested on: doxorubicin-induced cardiotoxicity; assay: Heart weight in doxorubicin-induced cardiotoxicity model; details: 5 days after DOX; for heart weight (effect of treatment): DOX 20 mg/kg mice, compound 180 mg/kg, vs DOX vehicle mice
Description: as §1, §2, §3, §4, §5
At D5, heart and tibia were collected.

[6] = DOX 20 mg/kg mice, compound 180 mg/kg i.p. daily
[7] = doxorubicin 20 mg/kg + vehicle vs control group
[8] = doxorubicin-treated mice (20 mg/kg, vehicle) vs control

SMILES	survival rate (% of survival) [1] [%]	body weight loss observed after doxorubicin administration (effect of treatment) [3]	ejection fraction [4, 6] [%]	fractional shortening [4, 6]	heart rate (effect of treatment, in words) [4, 6]	end-systolic LV volume (effect of treatment) [4, 6]	anterior and posterior wall thickness in systole (effect of treatment) ([4]; DOX 20 mg/kg mice)	heart weight (effect of treatment) [5]	further results
NC(=O)c1ccc[n+]([C@@H]2O[C@H](COP(=O)([O-])O)[C@@H](O)[C@H]2O)c1 [Compound 001, nicotinamide mononucleotide]	78	significantly decreased	56.9±0.6	around 38%	increased	reduced	non-significant increases	–	decrease of LDH release / reduction in LDH levels ([2]; DOX 20 mg/kg mice, compound 180 mg/kg, vs DOX vehicle): more than 35%
NC(=O)c1ccc[n+]([C@@H]2O[C@H](COP(=O)([O-])OP(=O)([O-])OC[C@H]3O[C@H]([n+]4cccc(C(N)=O)c4)[C@H](O)[C@@H]3O)[C@@H](O)[C@H]2O)c1 [Compound 010]	98	significantly decreased	60.0±0.6	around 38%	increased	reduced	non-significant increases	tended to increase	heart rate [4, 6]: 470.1±18.8 bpm
NC(=O)c1ccc[n+]([C@H]2O[C@H](COP(=O)([O-])OP(=O)([O-])OC[C@H]3O[C@H]([n+]4cccc(C(N)=O)c4)[C@H](O)[C@@H]3O)[C@@H](O)[C@H]2O)c1 [Compound 011]	100	significantly decreased	58.2±0.5	around 38%	increased	reduced	non-significant increases	tended to increase	–
COc1cccc2c1C(=O)c1c(O)c3c(c(O)c1C2=O)C[C@@](O)(C(=O)CO)C[C@@H]3O[C@H]1C[C@H](N)[C@H](O)[C@H](C)O1 [doxorubicin, reference compound]	–	–	–	–	–	–	–	–	mice died before the end of experimental protocol ([1]; doxorubicin 20 mg/kg i.p. mice treated with vehicle, up to D5): ~50%; increase in LDH release compared to control group ([2]; doxorubicin 20 mg/kg + vehicle): more than 3 fold; decrease in body weight (body weight gain) ([3]; doxorubicin 20 mg/kg i.p., surviving vehicle-treated mice, day of sacrifice minus before injection): -4.2 ± 0.5 g; end-diastolic LV volume [4, 7]: without significative difference; end-systolic LV volume [4, 7]: significant increase; anterior and posterior wall thickness in systole ([4]; doxorubicin 20 mg/kg + vehicle vs control): significantly decreased; heart rate ([4]; doxorubicin 20 mg/kg + vehicle): 365.1±23.9 bpm; ejection fraction ([4]; doxorubicin 20 mg/kg vehicle group): 38.9±1.3%; LV internal diameter in diastole [4, 8]: without significative difference; LV internal diameter in systole [4, 8]: significantly increased; fractional shortening ([4]; doxorubicin-treated mice (20 mg/kg, vehicle)): 33.5±0.4%; heart weight ([5]; doxorubicin 20 mg/kg + vehicle): 102.3 ± 4.6 mg
